# Laboratory results from paper PMC10569036.
# Test: shake flask on a mixture of 185; loss from the water phase only; LC-Orbitrap peak areas
# Details: room
Compound,"log partition 1-octanol / HPLC water, unbuffered, traces of methanol / DMSO","log partition butyl acetate / HPLC water, unbuffered, traces of methanol / DMSO","log partition chloroform / HPLC water, unbuffered, traces of methanol / DMSO","log partition cyclohexane / HPLC water, unbuffered, traces of methanol / DMSO","log partition dichloromethane / HPLC water, unbuffered, traces of methanol / DMSO","log partition n-hexane / HPLC water, unbuffered, traces of methanol / DMSO","log partition n-octane / HPLC water, unbuffered, traces of methanol / DMSO","log partition n-undecane / HPLC water, unbuffered, traces of methanol / DMSO","log partition oleylalcohol / HPLC water, unbuffered, traces of methanol / DMSO","log partition toluene / HPLC water, unbuffered, traces of methanol / DMSO"
CC(=O)/C=C/c1ccccc1,0.1948 log10,-0.04199 log10,-0.02485 log10,-0.3829 log10,-0.0685 log10,-0.3815 log10,-0.655 log10,-0.7862 log10,-0.0887 log10,-0.2533 log10
COc1ccccc1/C=C/C=O,1.387 log10,0.7851 log10,0.6596 log10,-0.3102 log10,0.6345 log10,0.495 log10,-0.2565 log10,-0.1964 log10,-0.5567 log10,0.2589 log10
Nc1nc(Cl)nc2c1ncn2[C@H]1C[C@H](O)[C@@H](CO)O1,0.3863 log10,-0.3544 log10,-0.3218 log10,-1.47 log10,-0.9957 log10,-1.176 log10,-1.209 log10,-1.567 log10,-0.4024 log10,-0.8939 log10
CC(C)Nc1nc(N)nc(Cl)n1,1.201 log10,1.711 log10,1.238 log10,-0.6663 log10,1.437 log10,-0.7941 log10,-0.5719 log10,-1.115 log10,1.559 log10,0.5402 log10
Cc1ccc(N)c(S(=O)(=O)O)c1,0.1434 log10,0.1277 log10,1.369 log10,-0.01168 log10,1.153 log10,0.1369 log10,-0.1323 log10,-0.3053 log10,-0.05327 log10,0.5377 log10
Cc1cc(O)cc(C)c1Cl,0.7604 log10,0.7531 log10,0.7311 log10,0.5528 log10,0.8657 log10,0.611 log10,0.5049 log10,0.3954 log10,0.7156 log10,0.8203 log10
CN1COCN(Cc2cnc(Cl)s2)C1=N[N+](=O)[O-],-0.1952 log10,0.2434 log10,1.267 log10,-1.812 log10,1.869 log10,-1.862 log10,-1.749 log10,-1.056 log10,-0.5161 log10,-0.2331 log10
C=CC(=O)OCC1CC2CC1C1CCC(COC(=O)C=C)C21 (stereo not shown),0.2948 log10,-0.12 log10,0.01457 log10,-0.1351 log10,0.05615 log10,-0.1023 log10,-0.1158 log10,0.0297 log10,0.1091 log10,0.1587 log10
CCCCCCOc1cc(C)c(O)c(C)c1C,-0.6155 log10,-0.05403 log10,0.3185 log10,-0.4525 log10,-0.07725 log10,-0.4691 log10,-0.1513 log10,-0.6506 log10,0.4249 log10,-0.2013 log10
CCCCCCC(O)CCCCCCCCCCC(=O)OC (stereo not shown),-0.3995 log10,-0.5958 log10,-0.2735 log10,-0.4754 log10,-1.47 log10,-1.341 log10,-1.53 log10,-1.718 log10,-0.7143 log10,-1.19 log10
